Results taken from US6469052B2, “Compounds for the photodecontamination of pathogens in blood” (Cerus Corporation, priority 1993, dated 2002).
Where two headings read alike, the source gives them in different places.

Key:
[1] = test system: Duck Hepatitis B Virus (DHBV); assay: Inactivation of DHBV in platelet concentrate, PCR amplification readout; conditions: 5J/CM^2 UVA
Procedure: This example describes the protocol for inactivation of Duck Hepatitis B Virus (DHBV), a model for Hepatitis B Virus, using compounds of the present invention. DHBV in duck yolk was added to platelet concentrate (PC) to a final concentration of 2×10^7 particles per mL and mixed by gentle rocking for ≧15 min. […] Samples, including controls without added psoralen, were irradiated with 5J/CM^2 UVA, with mixing at 1 J/cm^2 increments. After irradiation, leukocytes and platelets were separated from virus by centrifugation. […] Samples were extracted with phenol-chloroform and chloroform, followed by ethanol precipitation. […] PCR amplicons were generated using primers pairs DCD03/DCD05 (127 bp), DCD03/DCD06 (327 bp) and DCD03/DCD07 (1072 bp). PCR was performed in a standard PCR buffer containing 0.2 mM each deoxyribonucleoside 5′-triphosphates (dATP, dGTP, dCTP, and dTTP), […], and 0.5 units Taq polymerase per […]. 30 cycles of amplification were performed with the following thermal profile: 95° C. 30 sec, 60° C. 30 sec, 72° C. 1 min. The amplification was followed by a 7 min incubation at 72° C. to yield full length products. […] was added at an amount of […] in order to detect and quantify the resulting products. Products were separated by electrophoresis on denaturing polyacrylamide slab gels and counted. The absence of signal in a given reaction was taken to indicate effective inactivation of DHBV.

[2] = test system: R17; assay: R17 bacteriophage inactivation assay (r-17 screen); assay type: cell-based, bacteriophage R17 (grown in Hfr 3000 bacteria)
Procedure: An r-17 bacteriophage assay was used in this example to predict pathogen inactivation efficiency and to determine nucleic acid binding of the photoreactive binding compounds of the present invention. In the r-17 assay, the bacteriophage was placed in a solution with each compound tested and was then irradiated. The ability of the phage to subsequently infect bacteria and inhibit their growth was measured. The bacteriophage was selected for its relatively accessible nucleic acid such that the culture growth inhibition would accurately reflect nucleic acid damage by the test compounds. The bacteriophage assay for nucleic acid binding to test compounds offers a safe and inexpensive procedure to identify compounds likely to display efficient pathogen inactivation.
The R17 was grown up in Hfr 3000 bacteria, approximate titer 5 ×10^11. (R17 and Hfr 3000 were obtained from American Tissue Culture Collection (ATCC), Washington, D.C.) The R17 phage stock was added to a solution of 15% fetal bovine serum in Dulbecco's Modified Eagles Medium (DMEM) to a final phage concentration of 10^9/mL. An aliquot (0.5 mL) was transferred to a 1.5 mL snap-top polyethylene tube. An aliquot (0.004-0.040 mL) of the test compound stock solution prepared in water, ethanol or dimethylsulfoxide at 0.80-8.0 mM was added to the tube. Compounds were tested at concentrations between 4 μM and 320 μM. […] The tubes were placed in a light device as described in EXAMPLE 1 and irradiated for between 1 and 10 minutes. Sterile 13 mL dilution tubes were prepared; each test compound required one tube with 0.4 mL of Luria broth (LB) and five tubes containing 0.5 mL of LB broth. To make the dilutions, a 0.100 mL aliquot of the irradiated solution of phage and test compound was added to the first dilution tube of 0.4 mL of media then 0.020 mL of this solution was added to the second tube of 0.5 mL medium (1:25). The second solution was then diluted serially (1:25) into the remaining tubes. To each diluted sample was added 0.050 mL of Hfr 3000 bacteria cultured overnight and 3 mL of molten LB top agar and the mixed materials were poured onto LB broth plates. After the top agar hardened, the plates were incubated at 37° C. overnight. The plaque forming units were then counted the following morning and the titer of the phage remaining after phototreatment was calculated based on the dilution factors.
The following controls were run: the “phage only” in which phage was not treated with test compound and not irradiated (listed as “starting titer” in the tables below); the “UV only” in which the phage was irradiated in the absence of test compound; and the “dark” control in which the phage/test compound solution was not irradiated before it was diluted and plated.
Compounds of the present invention were also tested at a constant concentration for varying doses of UV light. Three sets of 1.5 mL tubes were prepared containing 0.6 mL aliquots of R17 in DMEM (prepared as described above). The compound tested was added at the desired concentration and the samples were vortexed. The samples were then irradiated at intervals of 1.0 J/cm^2, until 3.0 J/cm^2 was reached. Between each 1.0 J/cm^2 interval, 100 μL was removed from each sample and placed in the first corresponding dilution tube, then five sequential dilutions were performed for each compound tested, at all 3 irradiation doses, as described above in this example.
Then 50 μL of Hfr 3000 bacteria was added to each tube, 3 mL of top agar was added and the tube contents were vortexed. The contents of each tube was poured into its own LB plate and the plates were incubated overnight at 37° C. Plaques were counted by visual inspection the following morning.

[3] = test system: Salmonella typhimurium TA100
Text: (§1) The second property that is important in testing a compound for use in methods of the present invention is mutagenicity. The most widely used mutagen/carcinogen screening assay is the Ames test. This assay is described by D. M. Maron and B. N. Ames in Mutation Research 113: 173 ( 1983) and a specific screen is described in detail in Example 17, below. The Ames test utilizes several unique strains of Salmonella typhimurium that are histidine- dependent for growth and that lack the usual DNA repair enzymes. The frequency of normal mutations that render the bacteria independent of histidine (i.e., the frequency of spontaneous revertants) is low. The test allows one to evaluate the impact of a compound on this revertant frequency.
(§2) In this example the compounds of the present invention are tested for their dark mutagenicity using an Ames assay. The procedures used for the Salmonella mutagenicity test as described in detail by Maron and Ames were followed exactly. Maron, D. M. and B. N. Ames, Mutation Research 113: 173 ( 1983). A brief description for each procedure is given here. The tester strains TA97a, TA98, TA100, TA102, TA1537 and TA1538 were obtained from Dr. Ames. TA97a, TA98, TA1537 and TA1538 are frameshift tester strains. TA100 and TA102 are base-substitution tester strains. Upon receipt each strain was cultured under a variety of conditions to confirm the genotypes specific to the strains.
(§3) The first tests done with the strains were to determine the range of spontaneous reversion for each of the strains. With each mutagenicity experiment the spontaneous reversion of the tester strains to histidine independence was measured and expressed as the number of spontaneous revertants per plate. This served as the background controls.
(§4) For all experiments, the pre-incubation procedure was used. In this procedure one vial of each tester strain was thawed and 20 μL of this culture was added to 6 mL of Oxoid Nutrient Broth #2. This solution was allowed to shake for 10 hours at 37° C. In the pre-incubation procedure, 0.1 mL of this overnight culture was added to each of the required number of sterile test tubes. To half of the tubes 0.5 mL of a 10% S-9 solution containing Aroclor 1254 induced rat liver extract (Molecular Toxicology Inc., Annapolis, Md.), and MgCl2, KCl, glucose-6-phosphate, NADP, and sodium phosphate buffer (Sigma, St. Louis, Mo.) were added. To the other half of the tubes 0.5 mL of 0.2M sodium phospate buffer, pH 7.4, was used in place of the S-9 mixture (the -S9 samples). Finally 0.1 mL of the test solution containing either 0, 0.1, 0.5, 1, 5, 10, 50, 100, 250, or 500 μg/mL of the test compound was added. The 0.7 mL mixture was vortexed and then pre-incubated while shaking for 20 minutes at 37° C. After shaking, 2 mL of molten top agar supplemented with histidine and biotin were added to the 0.7 mL mixture and immediately poured onto a minimal glucose agar plate (volume of base agar was 20 mL). The top agar was allowed 30 minutes to solidify and then the plates were inverted and incubated for 44 hours at 37° C. After incubation the number of revertant colonies on each plate were counted. […] (“n” represents the number of replicates performed for each data point.)
(§5) Maron and Ames (1983) describe the conflicting views with regard to the statisical treatment of data generated from the test.

[4] = test system: Salmonella typhimurium TA1538; assay: Ames assay (dark mutagenicity), strain TA1538
Text: as §1, §2, §3, §4, §5

[5] = test system: Chinese hamster ovary (CHO) cells; assay: In vitro genotoxicity screen in CHO cells; assay type: cell-based; conditions: approximately 3 hours exposure in the dark, dilutions 1-1000 μg/ml
Text: The positive control was methylmethane sulfonate.
Coverslips were mounted with Permount.

[6] = test system: Salmonella typhimurium TA102; assay: Ames assay (dark mutagenicity), strain TA102; conditions: TA102 at 500 μg/plate
Text: as §1, §2, §3, §4, §5

[7] = test system: Salmonella tester strains TA97a, TA98, TA100, TA102, TA1537 and TA1538; assay: Ames assay, overall assessment over the tester strains; conditions: strains tested: TA100 and TA1538, ±S9, 5 and 10 μg/plate
Text: as §1, §2, §3
For all experiments, the pre-incubation procedure was used. In this procedure one vial of each tester strain was thawed and 20 μL of this culture was added to 6 mL of Oxoid Nutrient Broth #2. This solution was allowed to shake for 10 hours at 37° C. In the pre-incubation procedure, 0.1 mL of this overnight culture was added to each of the required number of sterile test tubes. To half of the tubes 0.5 mL of a 10% S-9 solution containing Aroclor 1254 induced rat liver extract (Molecular Toxicology Inc., Annapolis, Md.), and MgCl2, KCl, glucose-6-phosphate, NADP, and sodium phosphate buffer (Sigma, St. Louis, Mo.) were added. To the other half of the tubes 0.5 mL of 0.2M sodium phospate buffer, pH 7.4, was used in place of the S-9 mixture (the -S9 samples). Finally 0.1 mL of the test solution containing either 0, 0.1, 0.5, 1, 5, 10, 50, 100, 250, or 500 μg/mL of the test compound was added. […] After incubation the number of revertant colonies on each plate were counted. […]

How did the “PCR amplification of the 1072 bp DHBV amplicon” value ([1]; all concentrations (35, 70, and 100 mM)) turn out when `Cc1oc2c(C)c3oc(=O)cc(C)c3cc2c1COCCN` [Compound S-59] was run?
Its value is “complete inhibition of PCR”.

What about the “inhibition of PCR of the smaller DHBV amplicons (127 bp, 327 bp) compared with AMT” value ([1]; same concentrations) of the same molecule?
The value was “inhibited PCR of the smaller amplicons better than did AMT”.

`Cc1oc2c(C)c3oc(=O)cc(C)c3cc2c1CNCCN` [Compound 1, 4′-(4-amino-2-aza)butyl-4,5′,8-trimethylpsoralen] was tested. Which “R17 inactivation efficiency compared with 8-MOP” value ([2]; 32 μM, 1 minute irradiation) did it give?
The value was “much higher R17 inactivation efficiency than does 8-MOP”.

What about the “LOG TITER” value ([2]; experiment 1, 32 μM cmpd, 1′ uva, phage only titer 7.7) of the same molecule?
Its value is under 1 log.

What about the “LOG TITER” value ([2]; experiment 1, 32 μM cmpd, 10′ uva, phage only titer 7.7) of the same molecule?
Its value is under 1 log.

And the “LOG TITER” value ([2]; experiment 1, compound only (32 μM), no uva, phage only titer 7.7)?
The value was 7.6 log.

What about the “LOG TITER” value ([2]; experiment 2, 3.2 μM cmpd, 1′ uva, phage only titer 7.8) of the same molecule?
Its value is 6.9 log.

What about the “LOG TITER” value ([2]; experiment 2, 3.2 μM cmpd, 10′ uva, phage only titer 7.8) of the same molecule?
Its value is 6.1 log.

What about the “LOG TITER” value ([2]; experiment 2, compound only (3.2 μM), no uva, phage only titer 7.8) of the same molecule?
Its value is 7.7 log.

What about the “LOG TITER” value ([2]; experiment 3, 4 μM cmpd, 1′ uva, phage only titer 7.3) of the same molecule?
Its value is 6.3 log.

What about the “LOG TITER” value ([2]; experiment 3, 8 μM cmpd, 1′ uva, phage only titer 7.3) of the same molecule?
Its value is 5.6 log.

What about the “LOG TITER” value ([2]; experiment 3, 16 μM cmpd, 1′ uva, phage only titer 7.3) of the same molecule?
The value was 3.9 log.

And the “LOG TITER” value ([2]; experiment 3, compound only (16 μM), no uva, phage only titer 7.3)?
Its value is 7.3 log.

And the revertants per plate ([3]; TA100 +S9, 5 μg/plate)?
The revertants per plate was −24.

And the revertants per plate ([3]; TA100 +S9, 10 μg/plate)?
Its revertants per plate is −22.

And the “mutation in the TA100 strain” value ([3]; TA100, with and without S9)?
Its value is “displayed mutation in the TA100 strain, but only in the absence of S9”.

And the mutagenic response detected ([4]; TA1538 at 5 μg/plate in the presence of S9)?
Its mutagenic response detected is “weak frameshift mutagen”.

What about the revertants per plate ([4]; TA1538 −S9, 5 μg/plate) of the same molecule?
The revertants per plate was 10.

And the revertants per plate ([4]; TA1538 −S9, 10 μg/plate)?
The revertants per plate was 12.

For `Cc1oc2c(CN)c3oc(=O)cc(C)c3cc2c1C` [8-aminomethyl-4,4′, 5′-trimethylpsoralen, reference compound], which “genotoxic (toxic) concentration” value [5] is on record?
The value was 10 µg/mL.

With `COc1c2occc2cc2ccc(=O)oc12` [Compound 8-MOP, 8-Methoxypsoralen] as the molecule, how does the mutagenic response detected [6] read?
The mutagenic response detected was “weak base-substitution mutagen”.

What does the source list for `Cc1oc2c(C)c3oc(=O)cc(C)c3cc2c1COCCCN` [Compound 4, 4′-(5-amino-2-oxa)pentyl-4,5′,8-trimethylpsoralen]?
revertants per plate ([3]; TA100 +S9, 5 μg/plate): −10; revertants per plate ([3]; TA100 +S9, 10 μg/plate): −3; revertants per plate ([4]; TA1538 −S9, 5 μg/plate): −2; revertants per plate ([4]; TA1538 −S9, 10 μg/plate): −2; mutagenicity (overall) [7]: no mutagenicity
